Data from ChEMBL document CHEMBL1201862, “PubChem BioAssay data set” (2004).
Values belong to the compound of their own block, whether it stands above or below them. Active and inactive are the calls of the source.

Tests used:
[1] = IOSE-T80 ovarian epithelial cell cytotoxicity, dose response, cytotoxicity control for PAX8 inhibitor project, plate reader, dry powder samples (AID 743045); type: functional, cell-based
[2] = cytotoxicity in OVCAR8 ovarian cancer cells, dose response, PAX8 project, cell-based, plate reader, dry powder samples (AID 743197); type: functional; settings: OVCAR-8
Paired box protein Pax-8 = Paired box protein Pax-8 (Homo sapiens, UniProt Q06710); assay: inhibitors of PAX8-driven TPO luciferase reporter, dose response, RMG-I cells, cherry-pick (AID 687027); type: functional, cell-based;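 note: luciferase reporter driven by Pax8 target thyroperoxidase promoter measured by SteadyGlo luminescence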
Chain of Paired box protein Pax-8 (Q06710 whole entry): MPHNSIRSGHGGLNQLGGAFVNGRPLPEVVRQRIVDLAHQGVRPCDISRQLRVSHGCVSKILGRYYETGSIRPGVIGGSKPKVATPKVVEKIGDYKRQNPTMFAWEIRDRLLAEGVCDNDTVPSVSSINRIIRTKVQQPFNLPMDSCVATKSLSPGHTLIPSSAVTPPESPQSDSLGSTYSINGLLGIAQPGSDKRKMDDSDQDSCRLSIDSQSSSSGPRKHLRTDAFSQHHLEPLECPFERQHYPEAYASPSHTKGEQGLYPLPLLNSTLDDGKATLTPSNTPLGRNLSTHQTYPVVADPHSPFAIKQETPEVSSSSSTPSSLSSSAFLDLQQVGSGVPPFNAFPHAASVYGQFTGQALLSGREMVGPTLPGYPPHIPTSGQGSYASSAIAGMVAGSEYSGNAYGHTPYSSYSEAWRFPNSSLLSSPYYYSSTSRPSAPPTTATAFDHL

[3] = IGROV1 ovarian cancer cell cytotoxicity, dose response, PAX8 inhibitor project, plate reader, dry powder samples (AID 743043); type: functional, cell-based; settings: IGROV-1
[4] = A2780 ovarian cancer cell cytotoxicity, dose response, cytotoxicity control, plate reader, dry powder samples (AID 743046); type: functional, cell-based
[5] = non-specific cell cytotoxicity, dose response, cytotoxicity control for PAX8 inhibitor project, plate reader, dry powder samples (AID 743021); type: functional, cell-based
[6] = HepG2 cell cytotoxicity, dose response, cytotoxicity control, cherry-picked samples (AID 1159577); type: functional, cell-based
[7] = P. falciparum Dd2 growth inhibitors, dose response, SYBR Green, cherry-picked samples (AID 1159567); type: functional, cell-based
[8] = NIH:OVCAR-3 ovarian cancer cell cytotoxicity, dose response, PAX8 inhibitor project, plate reader, dry powder samples (AID 743044); type: functional, cell-based
[9] = inhibitors of PGC1a acetylation in cells, dose response, cell-based, cherry-picked samples (AID 720514); type: functional;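 note: potency may reflect raised or lowered acetylation signal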
[10] = Late stage assay provider results from the probe development effort to identify inhibitors of the Plasmodium falciparum M18 Aspartyl Aminopeptidase (M18AAP): radiolabel-based cell-based dose response assay to identify compounds that inhibit P. falciparum growth in RBCs, Set 2..; type: functional
[11] = A549 cell cytotoxicity, dose response, cytotoxicity control, 24 h, CellTiter-Glo luminescence, cherry-picks (AID 1053115); type: functional, cell-based; settings: A549, 24 h
[12] = molecular target: Induced myeloid leukemia cell differentiation protein Mcl-1 (Homo sapiens, UniProt Q07820); type: functional
Chain of Induced myeloid leukemia cell differentiation protein Mcl-1 (Q07820 whole entry): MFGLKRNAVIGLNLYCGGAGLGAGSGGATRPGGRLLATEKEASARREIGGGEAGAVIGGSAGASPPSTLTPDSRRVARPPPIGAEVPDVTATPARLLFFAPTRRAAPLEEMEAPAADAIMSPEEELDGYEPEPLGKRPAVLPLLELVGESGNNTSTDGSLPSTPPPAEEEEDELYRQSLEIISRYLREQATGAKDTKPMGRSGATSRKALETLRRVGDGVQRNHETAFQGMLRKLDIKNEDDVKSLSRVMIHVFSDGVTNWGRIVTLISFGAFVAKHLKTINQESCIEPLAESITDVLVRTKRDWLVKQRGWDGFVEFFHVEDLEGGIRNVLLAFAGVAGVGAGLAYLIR

Estrogen receptor beta = Estrogen receptor beta (Homo sapiens, UniProt Q92731);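 note: recombinant ER-beta bound to coactivator SRC1 peptide in presence of estradiol agonist; inhibitors block coactivator peptide binding and lower the FRET signal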
Chain of Estrogen receptor beta (Q92731 whole entry): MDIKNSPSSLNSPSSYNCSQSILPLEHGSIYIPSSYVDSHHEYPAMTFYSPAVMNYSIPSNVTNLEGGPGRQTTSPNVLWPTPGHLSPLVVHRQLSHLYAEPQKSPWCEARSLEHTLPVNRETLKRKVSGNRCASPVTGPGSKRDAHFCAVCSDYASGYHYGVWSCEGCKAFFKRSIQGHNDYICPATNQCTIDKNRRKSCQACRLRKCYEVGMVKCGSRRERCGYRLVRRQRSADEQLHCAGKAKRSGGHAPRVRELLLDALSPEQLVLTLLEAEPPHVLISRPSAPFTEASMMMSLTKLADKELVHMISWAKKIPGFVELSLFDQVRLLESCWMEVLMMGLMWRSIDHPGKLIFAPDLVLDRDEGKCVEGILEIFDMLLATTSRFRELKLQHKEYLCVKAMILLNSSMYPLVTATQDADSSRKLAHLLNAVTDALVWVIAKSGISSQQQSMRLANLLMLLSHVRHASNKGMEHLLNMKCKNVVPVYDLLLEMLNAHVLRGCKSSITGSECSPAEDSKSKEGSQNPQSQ

[13] = Artemis endonuclease inhibitor potency, dose response, biochemical, fluorescence intensity (AID 720701); type: functional;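 note: Artemis endonuclease enzyme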
[14] = molecular target: T1, Carboxy-terminal domain RNA polymerase II polypeptide A small phosphatase 1 (Homo sapiens, UniProt Q9GZU7); assay: inhibitors of CTDSP1, concentration-response testing, biochemical assay, absorbance-based, actives from ultra-high-throughput screening (AID 540297); type: functional
T1 sequence (Q9GZU7 whole entry): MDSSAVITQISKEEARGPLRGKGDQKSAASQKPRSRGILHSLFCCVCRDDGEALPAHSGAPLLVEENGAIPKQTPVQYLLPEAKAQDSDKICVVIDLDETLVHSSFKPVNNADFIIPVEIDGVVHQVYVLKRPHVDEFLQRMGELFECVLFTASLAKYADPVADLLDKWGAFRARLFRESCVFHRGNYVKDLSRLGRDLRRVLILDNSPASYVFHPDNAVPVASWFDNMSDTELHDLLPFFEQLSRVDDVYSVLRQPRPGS

[15] = molecular target: RNA-editing ligase 1, mitochondrial (Trypanosoma brucei brucei, UniProt P86926); assay: TbREL1 ligase inhibitors, dose response, biochemical, fluorescence, Trypanosoma brucei (AID 1117295); type: functional
Chain of RNA-editing ligase 1, mitochondrial (P86926 whole entry): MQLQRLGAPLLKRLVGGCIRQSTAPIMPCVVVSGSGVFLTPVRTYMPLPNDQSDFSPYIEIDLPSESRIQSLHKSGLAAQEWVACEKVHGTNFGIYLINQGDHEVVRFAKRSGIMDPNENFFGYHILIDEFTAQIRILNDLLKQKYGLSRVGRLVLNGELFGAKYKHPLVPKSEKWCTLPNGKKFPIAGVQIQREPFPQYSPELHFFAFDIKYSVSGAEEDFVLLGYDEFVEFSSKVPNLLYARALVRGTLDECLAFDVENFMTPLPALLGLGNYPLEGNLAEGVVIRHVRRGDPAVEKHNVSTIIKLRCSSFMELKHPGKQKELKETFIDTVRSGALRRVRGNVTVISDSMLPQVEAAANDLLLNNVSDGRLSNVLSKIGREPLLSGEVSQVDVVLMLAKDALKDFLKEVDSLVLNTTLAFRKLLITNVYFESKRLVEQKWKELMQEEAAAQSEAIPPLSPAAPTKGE

[16] = molecular target: G-protein coupled receptor 183 (Homo sapiens, UniProt P32249); assay: SAR confirmation of small molecule antagonists of the EBI2 receptor via a luminescent beta-arrestin assa.; type: functional
Chain of G-protein coupled receptor 183 (P32249 whole entry, canonical isoform): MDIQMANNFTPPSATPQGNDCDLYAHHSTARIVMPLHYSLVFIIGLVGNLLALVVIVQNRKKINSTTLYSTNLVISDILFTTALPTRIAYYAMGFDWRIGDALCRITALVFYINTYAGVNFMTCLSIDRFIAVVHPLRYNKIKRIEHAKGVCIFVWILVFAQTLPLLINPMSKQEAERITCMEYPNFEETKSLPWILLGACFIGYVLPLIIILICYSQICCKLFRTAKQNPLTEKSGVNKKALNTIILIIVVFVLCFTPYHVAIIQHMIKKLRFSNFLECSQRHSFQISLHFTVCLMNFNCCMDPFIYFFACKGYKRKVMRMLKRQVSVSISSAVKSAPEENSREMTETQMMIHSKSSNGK

[17] = molecular target: T2, Low molecular weight phosphotyrosine protein phosphatase (Homo sapiens, UniProt P24666); assay: LMPTP phosphatase inhibitors, colorimetric pNPP readout, dose response, orthogonal assay, biochemical, absorbance, pNPP substrate, LMPTP-A isoform, set 2 (AID 743308); type: functional
T2 sequence (P24666 whole entry): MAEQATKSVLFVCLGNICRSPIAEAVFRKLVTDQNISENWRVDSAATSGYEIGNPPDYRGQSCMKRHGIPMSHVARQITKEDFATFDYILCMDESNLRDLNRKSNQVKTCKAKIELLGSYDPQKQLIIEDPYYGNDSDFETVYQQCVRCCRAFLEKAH

[18] = molecular target: T2, Low molecular weight phosphotyrosine protein phosphatase; assay: LMPTP phosphatase inhibitors, dose response, biochemical, OMFP substrate, fluorescence intensity, set 2 (AID 743307); type: functional
[19] = P. falciparum Dd2 blood-stage growth inhibition, dose response, SYBR Green fluorescence, erythrocytes, dry powder, set 2 (AID 1159574); type: functional, cell-based

Compound: COc1ccc(C#Cc2ccc([C@H]3[C@@H](CO)N4CCCCN(C(=O)Nc5cccc(F)c5)C[C@H]34)cc2)cc1
- AC50 [1]: 32.3 µM (active)
- AC50 [2]: > 70 µM (inactive)
- AC50 (Paired box protein Pax-8): 10.9 µM (active)
- AC50 [3]: 21.1 µM (active)
- AC50 [4]: 12.2 µM (active)
- AC50 [5]: 32.1 µM (active)
- AC50 [6]: 7.31 µM (active)
- AC50 [7]: 1.28 µM (active)
- AC50 [8]: 10 µM (active)

Compound: COc1cc(CN2C[C@@H]3N[C@H](C2)[C@@H]3c2ccc(-c3cccc(OC)c3)cc2)cc(OC)c1
- AC50 [9]: 9.18 µM (active)

Compound: O=c1ccn(CCNc2c3ccccc3nc3ccccc23)cc1OCc1ccccc1
- IC50 [10]: 4.7 µM (active)

Compound: OC[C@@H]1Nc2ccc(-c3cccc(F)c3)cc2[C@@H]2[C@H]1CCN2Cc1ccc(F)cc1
- AC50 [6]: 17.8 µM (active)
- AC50 [11]: 52 µM (active)
- AC50 [7]: 5.68 µM (active)

- IC50 [12]: 4.9 µM (active)
- IC50 (Estrogen receptor beta): > 50 µM (not active)
- IC50 [13]: 18.5 µM (active)
- IC50 [14]: 10.1 µM (active)
Compound: Cc1nc2c(c(=O)n1CCC1=CCCCC1)c1nc3ccccc3nc1n2/N=C/c1ccco1

- IC50 [15]: > 96.6 µM (inactive)
Compound: COC(=O)C1=C(C)N(Cc2ccccc2C(F)(F)F)C(NCc2ccc(OC)cc2)=NC1c1ccccc1 (stereo not drawn)

- IC50 [16]: 0.0497 µM (active)
Compound: O=C(/C=C/c1ccc(F)cc1)N1CCN(S(=O)(=O)c2cccc3ccccc23)CC1

- IC50 [17]: 4 µM (active)
- IC50 [18]: 1.84 µM (active)
Compound: Fc1cccc(-c2cc(NCCCN3CCCCC3)c3ccccc3n2)c1

Compound: COc1ccc(S(=O)(=O)N(C)C[C@@H]2OCc3ccccc3-c3c(n(C)c4ccccc34)C(=O)N([C@@H](C)CO)C[C@H]2C)cc1
- AC50 [19]: 2.27 µM (active)
